The results in this text go back to US20100029657A1, “Bridged, Bicyclic Heterocyclic or Spiro Bicyclic Heterocyclic Derivatives of Pyrazolo[1, 5-A]Pyrimidines, Methods for Preparation and Uses Thereof” (Wyeth, priority 2008, published 2010).

Structures can show the parent of a compound that is named as a salt.

The test addresses T1, Flag/GST-tagged recombinant human B-Raf (Homo sapiens, UniProt P15056).
T1 construct: Flag; GST; made in house; host or cells: Sf9 insect cells (B-Raf); E. coli (MEK1-GST)
Description: B-Raf kinase assay (phosphorylation of GST-MEK1, phospho-MEK1 antibody/Europium detection). The test is classed as biochemical. The note with it: B-Raf IC50 Data for compounds of Formula A; read-out: Mean IC50. In outline: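 Percent inhibition was calculated at each compound concentration from Europium time-resolved fluorescence (anti-phospho-MEK1, then Eu-conjugated anti-rabbit) after GST capture. The upstream kinase step used GST-MEK1 with 0.2 nM B-Raf for 45 min at room temperature in MOPS buffer, pH 7.2. It was started with a cocktail of 200 μM ATP and 40 mM MgCl2.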

T1 sequence (P15056 whole entry): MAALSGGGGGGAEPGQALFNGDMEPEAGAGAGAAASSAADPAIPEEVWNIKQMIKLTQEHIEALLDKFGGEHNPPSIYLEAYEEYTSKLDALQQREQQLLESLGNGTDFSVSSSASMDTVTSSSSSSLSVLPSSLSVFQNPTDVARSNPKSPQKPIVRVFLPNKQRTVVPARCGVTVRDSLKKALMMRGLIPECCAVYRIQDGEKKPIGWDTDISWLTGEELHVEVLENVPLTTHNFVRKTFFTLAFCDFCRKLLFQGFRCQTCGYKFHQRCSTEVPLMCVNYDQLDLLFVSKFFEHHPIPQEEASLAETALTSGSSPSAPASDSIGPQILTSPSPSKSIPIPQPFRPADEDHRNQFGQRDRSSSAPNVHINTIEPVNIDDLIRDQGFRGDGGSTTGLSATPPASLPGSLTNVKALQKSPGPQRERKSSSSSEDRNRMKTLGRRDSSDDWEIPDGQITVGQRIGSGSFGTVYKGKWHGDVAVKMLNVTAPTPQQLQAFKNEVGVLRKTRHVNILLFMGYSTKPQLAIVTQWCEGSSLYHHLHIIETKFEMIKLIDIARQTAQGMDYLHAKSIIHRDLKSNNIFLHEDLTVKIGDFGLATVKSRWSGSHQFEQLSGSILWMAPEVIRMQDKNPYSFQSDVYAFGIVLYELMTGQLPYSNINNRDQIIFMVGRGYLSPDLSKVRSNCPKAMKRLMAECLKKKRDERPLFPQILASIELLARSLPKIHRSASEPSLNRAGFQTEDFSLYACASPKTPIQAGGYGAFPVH

Consider `CC(C)(C)OC(=O)N1C[C@@H]2C[C@H]1CN2c1ccc(-c2ccnc3c(-c4ccc(F)c5[nH]ncc45)c(-c4ccncc4)nn23)cc1` [Example 102, tert-Butyl(1S,4S)-5-{4-[3-(7-fluoro-1H-indazol-4-yl)-2-pyridin-4-ylpyrazolo[1,5-a]pyrimidin-7-yl]phenyl}-2,5-diazabicyclo[2.2.1]heptane-2-carboxylate], for which the IC50 was determined as 2.04 nM.

On to `Fc1ccc(-c2c(-c3ccncc3)nn3c(-c4ccc(N5C[C@@H]6C[C@H]5CN6)cc4)ccnc23)c2cn[nH]c12` [Example 103, 7-[4-(2,5-Diaza-bicyclo[2.2.1]hept-2-yl)-phenyl]-3-(7-fluoro-1H-indazol-4-yl)-2-pyridin-4-yl-pyrazolo[1,5-a]pyrimidine], for which the half-maximal inhibitory concentration (IC50) was below 0.3 nM.

Turning to `CN1C[C@@H]2C[C@H]1CN2c1ccc(-c2ccnc3c(-c4ccc(F)c5[nH]ncc45)c(-c4ccncc4)nn23)cc1` [Example 104, 3-(7-fluoro-1H-indazol-4-yl)-7-{4-[(1S,4S)-5-methyl-2,5-diazabicyclo[2.2.1]hept-2-yl]phenyl}-2-pyridin-4-ylpyrazolo[1,5-a]pyrimidine hydrochloride], the IC50 is 0.24 nM.

For `Fc1cc(N2C[C@@H]3C[C@H]2CN3)ccc1-c1ccnc2c(-c3ccc(F)c4[nH]ncc34)c(-c3ccncc3)nn12` [Example 106, 7-{4-[(1S,4S)-2,5-diazabicyclo[2.2.1]hept-2-yl]-2-fluorophenyl}-3-(7-fluoro-1H-indazol-4-yl)-2-pyridin-4-yl pyrazolo[1 5-a]pyrimidine], the IC50 was below 0.3 nM.

With `CN1C[C@@H]2C[C@H]1CN2c1ccc(-c2ccnc3c(-c4ccc(F)c5[nH]ncc45)c(-c4ccncc4)nn23)c(F)c1` [Example 107, 3-(7-fluoro-1H-indazol-4-yl)-7-{2-fluoro-4-[(1S,4S)-5-methyl-2,5-diazabicyclo[2.2.1]hept-2-yl]phenyl}-2-pyridin-4-ylpyrazolo[1,5-a]pyrimidine], the IC50 was below 0.3 nM.

As for `Fc1cc(N2C[C@@H]3C[C@H]2CN3)cc(F)c1-c1ccnc2c(-c3ccc(F)c4[nH]ncc34)c(-c3ccncc3)nn12` [Example 109, 7-{4-[(1S,4S)-2,5-Diazabicyclo[2.2.1]hept-2-yl]-2,6-difluorophenyl}-3-(7-fluoro-1H-indazol-4-yl)-2-pyridin-4-yl pyrazolo[1,5-a]pyrimidine], the concentration for half-maximal inhibition (IC50) was below 0.3 nM.

Take `CN1C[C@@H]2C[C@H]1CN2c1cc(F)c(-c2ccnc3c(-c4ccc(F)c5[nH]ncc45)c(-c4ccncc4)nn23)c(F)c1` [Example 110, 7-{2,6-Difluoro-4-[(1S,4S)-5-methyl-2,5-diazabicyclo[2.2.1]hept-2-yl]phenyl}-3-(7-fluoro-1H-indazol-4-yl)-2-pyridin-4-yl pyrazolo[1,5-a]pyrimidine]: the IC50 is below 0.1 nM.

`OCCN1C2CCC1CC(c1ccnc3c(-c4cccc5[nH]ncc45)c(-c4ccncc4)nn13)C2` (stereo not drawn) [Example 112, 2-{3-[3-(1H-indazol-4-yl)-2-pyridin-4-ylpyrazolo[1,5-a]pyrimidin-7-yl]-8-azabicyclo[3.2.1]oct-8-yl}ethanol]: the half-maximal inhibitory concentration (IC50) was 22.8 nM.

With `CC(C)N1C2CCC1CC(c1ccnc3c(-c4cccc5[nH]ncc45)c(-c4ccncc4)nn13)C2` (stereo not drawn) [Example 113, 3-(1H-indazol-4-yl)-7-(8-isopropyl-8-azabicyclo[3.2.1]oct-3-yl)-2-pyridin-4-ylpyrazolo[1,5-a]pyrimidine], the IC50 came out at 67 nM.

Regarding `NC(=O)N1C2CCC1CC(c1ccnc3c(-c4cccc5[nH]ncc45)c(-c4ccncc4)nn13)C2` (stereo not drawn) [Example 115, 3-[3-(1H-indazol-4-yl)-2-pyridin-4-ylpyrazolo[1,5-a]pyrimidin-7-yl]-8-azabicyclo[3.2.1]octane-8-carboxamide], the IC50 worked out at 9.1 nM.

In the case of `CN(C)CC(=O)N1C2CCC1CC(c1ccnc3c(-c4cccc5[nH]ncc45)c(-c4ccncc4)nn13)C2` (stereo not drawn) [Example 116, 2-{3-[3-(1H-indazol-4-yl)-2-pyridin-4-ylpyrazolo[1,5-a]pyrimidin-7-yl]-8-azabicyclo[3.2.1]oct-8-yl}-N,N-dimethyl-2-oxoethanamine], the IC50 is 61.8 nM.

On to `N#CCN1C2CCC1CC(c1ccnc3c(-c4cccc5[nH]ncc45)c(-c4ccncc4)nn13)C2` (stereo not drawn) [Example 117, {3-[3-(1H-indazol-4-yl)-2-pyridin-4-ylpyrazolo[1,5-a]pyrimidin-7-yl]-8-azabicyclo[3.2.1]oct-8-yl}acetonitrile], for which the IC50 turned out to be 2.8 nM.

With `CCNC(=O)N1C2CCC1CC(c1ccnc3c(-c4cccc5[nH]ncc45)c(-c4ccncc4)nn13)C2` (stereo not drawn) [Example 118, N-ethyl-3-[3-(1H-indazol-4-yl)-2-pyridin-4-ylpyrazolo[1,5-a]pyrimidin-7-yl]-8-azabicyclo[3.2.1]octane-8-carboxamide], the IC50 amounted to 6.7 nM.

Regarding `CC(=O)N1C2CCC1CC(c1ccnc3c(-c4cccc5[nH]ncc45)c(-c4ccncc4)nn13)C2` (stereo not drawn) [Example 119, 7-(8-acetyl-8-azabicyclo[3.2.1]oct-3-yl)-3-(1H-indazol-4-yl)-2-pyridin-4-ylpyrazolo[1,5-a]pyrimidine], the 50% inhibitory concentration (IC50) was determined as 9.1 nM.

Turning to `CN(C)C(=O)N1C2CCC1CC(c1ccnc3c(-c4cccc5[nH]ncc45)c(-c4ccncc4)nn13)C2` (stereo not drawn) [Example 120, 3-[3-(1H-indazol-4-yl)-2-pyridin-4-ylpyrazolo[1,5-a]pyrimidin-7-yl]-N,N-dimethyl-8-azabicyclo[3.2.1]octane-8-carboxamide], the IC50 was 6.4 nM.

With `COc1cc(-c2c(-c3ccncc3)nn3c(CN4C[C@@H]5C[C@H]4CN5C(=O)OC(C)(C)C)ccnc23)ccc1Cl` [Example 121, tert-butyl (1S,4S)-5-{[3-(4-chloro-3-methoxyphenyl)-2-pyridin-4-ylpyrazolo[1,5-a]pyrimidin-7-yl]methyl}-2,5-diazabicyclo[2.2.1]heptane-2-carboxylate], the IC50 is above 100 nM.

As for `CC(C)(C)OC(=O)N1C[C@@H]2C[C@H]1CN2c1ccc(-c2ccn3nc(-c4ccncc4)c(-c4ccc(F)c5[nH]ncc45)c3n2)cc1` [Example 122, tert-butyl (1S,4S)-5-{4-[3-(7-fluoro-1H-indazol-4-yl)-2-pyridin-4-ylpyrazolo[1,5-a]pyrimidin-5-yl]phenyl}-2,5-diazabicyclo[2.2.1]heptane-2-carboxylate], the IC50 was 19.1 nM.

On to `c1cc(-c2ccnc3c(-c4cccc5[nH]ncc45)c(-c4ccncc4)nn23)cc(N2C[C@@H]3C[C@H]2CN3)c1` [Example 124, 7-{3-[(1S,4S)-2,5-diazabicyclo[2.2.1]hept-2-yl]phenyl}-3-(1H-indazol-4-yl)-2-pyridin-4-ylpyrazolo[1,5-a]pyrimidine], for which the IC50 amounted to 37.6 nM.

Turning to `CC(C)(C)OC(=O)N1C[C@@H]2C[C@H]1CN2c1ccc(-c2ccnc3c(-c4ccc(Cl)c5[nH]ncc45)c(-c4ccncc4)nn23)cc1` [Example 125, tert-butyl (1S,4S)-5-{4-[3-(7-chloro-1H-indazol-4-yl)-2-pyridin-4-ylpyrazolo[1,5-a]pyrimidin-7-yl]phenyl}-2,5-diazabicyclo[2.2.1]heptane-2-carboxylate], the IC50 was determined as 44.9 nM.

For the compound `CN1C[C@@H]2C[C@H]1CN2c1cccc(-c2ccnc3c(-c4cccc5[nH]ncc45)c(-c4ccncc4)nn23)c1` [Example 126, 3-(1H-indazol-4-yl)-7-{3-[(1S,4S)-5-methyl-2,5-diazabicyclo[2.2.1]hept-2-yl]phenyl}-2-pyridin-4-ylpyrazolo[1,5-a]pyrimidine], the IC50 is 61.2 nM.

As to `Clc1ccc(-c2c(-c3ccncc3)nn3c(-c4ccc(N5C[C@@H]6C[C@H]5CN6)cc4)ccnc23)c2cn[nH]c12` [Example 127, 3-(7-chloro-1H-indazol-4-yl)-7-{4-[(1S,4S)-2,5-diazabicyclo[2.2.1]hept-2-yl]phenyl}-2-pyridin-4-ylpyrazolo[1,5-a]pyrimidine], the IC50 is 31.3 nM.

Consider `CC(C)(C)OC(=O)N1CCC[C@H]1C(=O)N1C2CCC1CC(c1ccnc3c(-c4cccc5[nH]ncc45)c(-c4ccncc4)nn13)C2` (stereo partly drawn) [Example 128, tert-butyl (2S)-2-({3-[3-(1H-indazol-4-yl)-2-pyridin-4-ylpyrazolo[1,5-a]pyrimidin-7-yl]-8-azabicyclo[3.2.1]oct-8-yl}carbonyl)pyrrolidine-1-carboxylate], for which the IC50 was 39.4 nM.

On to `O=C([C@@H]1CCCN1)N1C2CCC1CC(c1ccnc3c(-c4cccc5[nH]ncc45)c(-c4ccncc4)nn13)C2` (stereo partly drawn) [Example 129, 3-(1H-indazol-4-yl)-7-(8-L-prolyl-8-azabicyclo[3.2.1]oct-3-yl)-2-pyridin-4-ylpyrazolo[1,5-a]pyrimidine], for which the IC50 is 2.1 nM.

Take `CC(=O)CN1C2CCC1CC(c1ccnc3c(-c4cccc5[nH]ncc45)c(-c4ccncc4)nn13)C2` (stereo not drawn) [Example 130, 1-{3-[3-(1H-indazol-4-yl)-2-pyridin-4-ylpyrazolo[1,5-a]pyrimidin-7-yl]-8-azabicyclo[3.2.1]oct-8-yl}propan-2-one]: the IC50 is 75.9 nM.

For `CCOC(=O)N1C2CCC1CC(c1ccn3nc(-c4ccncc4)c(-c4ccc(F)c5[nH]ncc45)c3n1)C2` (stereo not drawn) [Example 131, ethyl 3-[3-(7-fluoro-1H-indazol-4-yl)-2-pyridin-4-ylpyrazolo[1,5-a]pyrimidin-5-yl]-8-azabicyclo[3.2.1]octane-8-carboxylate], the IC50 worked out at 1 nM.

As to `COc1cccc(-c2c(-c3ccncc3)nn3c(-c4ccc(N5C[C@@H]6C[C@H]5CN6)cc4F)ccnc23)c1` [Example 132, 7-{4-[(1S,4S)-2,5-diazabicyclo[2.2.1]hept-2-yl]-2-fluorophenyl}-3-(3-methoxyphenyl)-2-pyridin-4-ylpyrazolo[1,5-a]pyrimidine], the IC50 stood at 0.4 nM.

As for `Oc1cccc(-c2c(-c3ccncc3)nn3c(-c4ccc(N5C[C@@H]6C[C@H]5CN6)cc4F)ccnc23)c1` [Example 133, 3-(7-{4-[(1S,4S)-2,5-diazabicyclo[2.2.1]hept-2-yl]-2-fluorophenyl}-2-pyridin-4-ylpyrazolo[1,5-a]pyrimidin-3-yl)phenol], the half-maximal inhibitory concentration (IC50) was below 0.3 nM.
